In PubChem BioAssay (NCI) one finds TGI and GI50 data, which are given here for seven compounds.

SMILES strings stand for the structures.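 Step 1: Grow cells in 96-well plates. Step 2: Expose to compound for 48 hours at 5 concentrations. Step 3: Interpolate endpoints linearly; if unreached, use highest concentration. GI50 marks 50% less growth. At the TGI there is no net growth.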 Bounds are passed on as bounds.

Some test systems named below: HCC-2998 colon; CAKI-1 renal; NCI-H23 lung; OVCAR-4 ovarian; SK-MEL-2 melanoma; HCT-15 colon; M14 melanoma; SK-MEL-5 melanoma; LXFL 529 NSCLC; HOP-92 NSCLC; RPMI-8226 leukemia; NCI/ADR-RES ovarian; T-47D breast; NCI-H522 lung.
What all share (experiment): NCI-60 cell line screen, 48 h

`CCN(CC)CCO[Si](OCCN(CC)CC)(OCCN(CC)CC)OCCN(CC)CC`: the TGI in the test with HCC-2998 colon, with CAKI-1 renal, with NCI-H23 lung, in the test with OVCAR-4 ovarian, with SK-MEL-2 melanoma and in the test with HCT-15 colon was > 100 µM each time. In addition, the TGI in the test on M14 melanoma and in the test with SK-MEL-5 melanoma was > 100 µM each time.

`O=C(CCC1CCCCN1)Nc1ccc2c(c1)C(=O)c1ccc(NC(=O)CCN3CCCCC3)cc1C2=O` (stereo unspecified): the TGI is 5.61 µM in the test on CAKI-1 renal; 2.7 µM with LXFL 529 NSCLC; 5.27 µM in the test with NCI-H23 lung; 5.38 µM with OVCAR-4 ovarian; 5.98 µM with HOP-92 NSCLC; 2.8 µM in the test on M14 melanoma. Besides, the TGI with SK-MEL-5 melanoma came to 3.27 µM.

As to `COC(=O)C1c2cc3c(c(O)c2C(O)CC1(C)O)C(=O)c1c(O)cc2c(c1C3=O)OC1OC2(C)C(O)C(N(C)C)C1O` (stereo unspecified), the TGI with RPMI-8226 leukemia was > 100 µM; in the test with CAKI-1 renal it was 14.2 µM; in the test on LXFL 529 NSCLC, > 100 µM; in the test with NCI/ADR-RES ovarian, 3.05 µM; with OVCAR-4 ovarian it was > 100 µM; in the test on SK-MEL-2 melanoma, > 100 µM. Further, the TGI was > 76.6 µM in the test with HOP-92 NSCLC and 4.6 µM in the test on T-47D breast.

With `NC(=O)Oc1ccccc1`, the TGI with HCC-2998 colon, with NCI-H23 lung, with NCI/ADR-RES ovarian, in the test on OVCAR-4 ovarian, with HOP-92 NSCLC and with NCI-H522 lung was > 100 µM each time. Besides, the TGI in the test on HCT-15 colon, in the test with M14 melanoma, in the test on SK-MEL-5 melanoma and in the test with T-47D breast was > 100 µM each time.

`CC1OC(=O)C(C(C)C)NC(=O)C(C(C)C)OC(=O)C(C(C)C)NC(=O)C(C)OC(=O)C(C(C)C)NC(=O)C(C(C)C)OC(=O)C(C(C)C)NC(=O)C(C)OC(=O)C(C(C)C)NC(=O)C(C(C)C)OC(=O)C(C(C)C)NC1=O` (stereo unspecified): the TGI with RPMI-8226 leukemia was determined as 0.0158 µM; in the test with HCC-2998 colon, 1.29 µM; with CAKI-1 renal it was 0.00345 µM; with NCI-H23 lung, 0.0503 µM; with NCI/ADR-RES ovarian, 0.117 µM; in the test on SK-MEL-2 melanoma, 0.167 µM. The TGI in the test on NCI-H522 lung is < 0.0001 µM; in the test with HCT-15 colon, 4.53 µM; with T-47D breast, 0.0138 µM. For the same compound, the GI50 in the test on HCC-2998 colon is < 0.1 nM; with NCI-H23 lung, < 0.1 nM; with NCI/ADR-RES ovarian, 12.9 nM; in the test on HOP-92 NSCLC it was < 0.1 nM; in the test on NCI-H522 lung, < 0.1 nM; in the test with HCT-15 colon, 0.358 nM.

For the compound `CCOC(C)OC1CC(n2cc(C)c(=O)[nH]c2=O)OC1CO` (stereo unspecified), the TGI in the test on RPMI-8226 leukemia, with HCC-2998 colon, in the test with LXFL 529 NSCLC, with NCI-H23 lung, in the test with OVCAR-4 ovarian and in the test on SK-MEL-2 melanoma was > 100 µM throughout. Also, the TGI in the test on HOP-92 NSCLC, in the test with NCI-H522 lung, in the test with HCT-15 colon and in the test with M14 melanoma was > 100 µM in each case.

Consider `CN1CN(C(=O)N2CN(C)C(=O)N(C)C2)CN(C)C1=O`, for which the TGI with RPMI-8226 leukemia, in the test on HCC-2998 colon, with CAKI-1 renal, with LXFL 529 NSCLC, with SK-MEL-2 melanoma and in the test with NCI-H522 lung was > 100 µM each time. Further, the TGI with HCT-15 colon and in the test with M14 melanoma was > 100 µM throughout.
